Tests used:
[1] = test system: cortical oligodendrocytes; experiment: Gene expression profiling (Affymetrix Rat 230 2.0), control vs 1-day MECA stimulated cortical oligodendrocytes; type: cell-based
Description: As a second filter to determine which genes were commonly regulated between pure optic nerve and enriched cortical oligodendrocytes, gene expression analysis comparing non-myelinating cortical oligodendrocytes with 1-day MECA induced cortical oligodendrocytes committed to myelination was made. Since cortical oligodendrocyte cell preparations yield larger numbers of cells, determining overlap between 1-day MECA treated ON-oligodendrocytes and 1-day MECA treated cortical oligodendrocytes help determine if use of cortical oligodendrocytes for future experiments to test genes of interest is a feasible option. Cortical oligodendrocytes were isolated from 2 litters of newborn SD rat pups. RNA for replicates were isolated from the cells which were plated on 3 separate 6-well tissue culture plates (approximately 500,000 cells per well) with control and treated cells included in separate wells on each plate. The important caveat to keep in mind when comparing gene expression in cortical oligodendrocytes with ON-oligodendrocytes is that the cortical oligodendrocytes are not a pure cell population. Cortical oligodendrocytes comprise approximately 80% oligodendrocytes and about 20% astrocytes, with some neuronal cells. Total RNA was generated in triplicate and hybridized to Affymetrix GeneChip™ Rat 230 2.0 arrays with approximately 30,000 genes. RNA submitted for analysis was amplified using the MessageAmp II aRNA kit from Ambion to generate sufficient amounts of RNA for hybridization to arrays and to keep sample preparation conditions similar to 1-day control and MECA treated ON-oligodendrocytes set forth elsewhere herein. Table 2 provides a summary of differentially regulated genes from comparison of control and 1-day MECA stimulated cortical oligodendrocytes.

[2] = test system: rhoA expression in rat optic nerve oligodendrocytes; experiment: rhoA expression by Quantitative RT-PCR in MECA-treated oligodendrocytes; type: cell-based
Protocol: Primers and probes were designed using the Primer Express software from Applied Biosystems. Probes were designed with 6-FAM as fluorophore at the 5′end and TAMRA as quencher at the 3′ end. QRT-PCR reactions were set up as a one-step reaction using 20 ng of total RNA as template, and included 1× Taqman™ buffer, 5 mM MgCl2, 1.5 mM dNTP mix, 300 nM forward and reverse primers, […] Taqman™ probe, 20 units RNase inhibitor, 5 units Multiscribe™ MuLV reverse transcriptase and 2 units AmpliTaq™ Gold DNA polymerase in a 50 microliter reaction. All reagents used were from Applied Biosystems. Reactions were run on a ABI 7500 using the following cycling conditions: “Hold” at 48° C. for 30 minutes, “Hold” at 95 for 10 minutes, “Denature” at 95° C. for 15 seconds, and “Anneal/Extend” at 60° C. for 1 minute. The last two steps were repeated for 40 cycles.
RhoA is a member of the Ras superfamily of small GTPases and functions as a GDP/GTP—regulated binary switch that regulates signal transduction pathways controlling actin cytoskeletal reorganization. […] Expression of rhoA was determined by Quantitative RT-PCR in oligodendrocytes treated with MECA or untreated for various times, as set forth below. […] Quantitative RT-PCR was set up as per standard protocol as a single step reaction. […]

[3] = test system: optic nerve oligodendrocytes; experiment: Gene expression profiling (Affymetrix Rat genome 230 2.0), control vs 3-day MECA stimulated ON-oligodendrocytes; type: cell-based; conditions: p-value <0.05
Description: To identify transient versus long-term gene expression changes, control and 3-day ADORA1 agonist (MECA) stimulated optic nerve oligodendrocytes were compared. As described elsewhere herein, 3 days of ADORA1 stimulation were sufficient to obtain myelin segments in the optic nerve myelination system. RNA samples were generated in triplicate, each replicate generated by pooling RNA from two separate oligodendrocyte preps (one prep from 12 litters of post-natal day 4 SD pups). RNA samples were analyzed for gene expression profiling using the Affymetrix GeneChip™ Rat genome 230 2.0 Array that provides coverage of approximately 30,000 transcripts. RNA was amplified using the MessageAmp II aRNA kit from Ambion to generate sufficient amounts of RNA for hybridization to arrays, as previously described.

[4] = test system: MOG surface expression in optic nerve oligodendrocytes; experiment: MOG cell surface label, optic nerve oligodendrocytes; type: cell-based, rat; conditions: after 6 days; control oligodendrocytes up-regulated MOG
Protocol: Purified rat optic nerve and enriched rat cortical oligodendrocytes were first grown in mitogenic medium and then switched to differentiation medium. Stimulated oligodendrocytes received the ADORA1 agonist, MECA, 24 hours later. Optic nerve oligodendrocytes were assessed 2, 4, and 6 days post MECA treatment, cortical oligodendrocytes, 3, 5, and 7 days post treatment. For the MOG cell surface label, cells were incubated with the anti-MOG antibody (1 μg/ml) for one hour at room temperature in phosphate buffered saline (PBS) containing sodium-pyruvate and glucose (Invitrogen) to ensure survival of cells during this time. Subsequently the cells were fixed, incubated in PBS containing 50% goat serum at RT for 30 minutes and incubated with a secondary antibody (FITC- or Cy3-coupled goat anti-mouse IgG antibody from Jackson Immunoresearch).

`CNC(=O)[C@H]1O[C@@H](n2cnc3c(N)ncnc32)[C@H](O)[C@@H]1O` [MECA, 5′-N-methylcarboxamidoadenosine] was tested, and the “differentially regulated genes, fold change >1.1 fold” value ([1]; p-value <0.05) was 1969 genes, the “differentially regulated genes, fold change >1.2 fold” value ([1]; p-value <0.05) was 1425 genes and the “differentially regulated genes, fold change >1.5 fold” value ([1]; p-value <0.05) was 252 genes. The down-regulated changes ([1]; p-value <0.05) was 49%, the up-regulated changes ([1]; p-value <0.05) was 51% and the “total differentially regulated genes in the group comparison” value ([1]; p-value <0.05, 1.2 fold-change cutoff) was 1339 genes. The “genes exclusive to cortical oligodendrocytes” value ([1]; p-value <0.05, 1.2 fold-change cutoff, versus ON-oligodendrocytes) was 925 genes, the “rhoA expression compared to control (untreated)” value ([2]; day 1 of MECA treatment, n=3) was “two-fold reduction” and the “rhoA expression compared to control (untreated)” value ([2]; other time points (6 hours, 16 hours, 2 days, 3 days)) was “No significant differences”. The “differentially regulated genes, fold change >1.1 fold” value [3] was 2721 genes, the “differentially regulated genes, fold change >1.2 fold” value [3] was 2428 genes and the “differentially regulated genes, fold change >1.5 fold” value [3] was 1021 genes. The down-regulated changes [3] was 52%, the up-regulated changes [3] was 48% and the “MOG protein expression on the cell surface” value [4] was “remained low”.

Source: patent US20060183147A1, “Methods of identifying genes which modulate myelination” (Elan Pharmaceuticals, Inc., priority 2005, published 2006)
